In patent publication US10279082B2, “Implant with an bioactive coating and method for providing the same” (Biomet Deutschland GmbH, priority 2015, dated 2019):

Key:
[1] = Wiping test for adherence of the coating (glass substrate, polyester cloth); assay type: physicochemical; conditions: fosfomycin-Ca about 430 μg/cm^2, rifampicin about 60 μg/cm^2, wiped with polyester cloth
From the text: A substrate, here a glass substrate, was coated at first with a fosfomycin-Ca monohydrate suspension. Subsequently, a part of the glass substrate coated with fosfomycin-Ca was partially coated with rifampicin.
The completely coated substrate was then wiped using a polyester cloth.

[2] = test system: intracellular staphylococci; conditions: local administration of a pharmaceutical composition comprising rifampin; cited from earlier work

Structure (SMILES)	adherence of coating after wiping [1]	elimination of intracellular staphylococci [2]
C[C@@H]1O[C@@H]1P(=O)([O-])[O-].O.[Ca+2] [fosfomycin-Ca, fosfomycin-calcium-monohydrate]	largely removed	–
CO[C@H]1/C=C/O[C@@]2(C)Oc3c(C)c(O)c4c(O)c(c(/C=N/N5CCN(C)CC5)c(O)c4c3C2=O)NC(=O)/C(C)=C\C=C\[C@H](C)[C@H](O)[C@@H](C)[C@@H](O)[C@@H](C)[C@H](OC(C)=O)[C@@H]1C [rifampin]	–	reduced within three days
